Experimental data reported in ChEMBL document CHEMBL1255377, “Synergy of human immunodeficiency virus protease inhibitors with chloroquine against Plasmodium falciparum in vitro and Plasmodium chabaudi in vivo” (Antimicrob Agents Chemother, 2008).
Active and inactive are the calls of the source. No cut-off for these calls is given here.

Legend:
Type in all cases: functional, organism-based
[1] = system: Plasmodium chabaudi; assay: Antimicrobial activity against chloroquine-resistant Plasmodium chabaudi ASCQ infected in NIH mice (Mus musculus) at 2.5 mg/kg, perorally administered after 72 hrs post inoculation measured on day 4 post infection; design: dose 2.5 mg/kg
[2] = system: Plasmodium falciparum; assay: Antimicrobial activity against chloroquine-resistant Plasmodium falciparum Dd2 infected in human erythrocytes assessed as potentiation of choloroquine-mediated antimalarial activity by light microscopy
[3] = system: Plasmodium falciparum; assay: Antimicrobial activity against chloroquine-resistant Plasmodium falciparum 3D7 infected in human erythrocytes assessed as potentiation of choloroquine-mediated antimalarial activity by light microscopy
[4] = system: Plasmodium chabaudi; assay: Antimicrobial activity against chloroquine-sensitive Plasmodium chabaudi ASS infected in NIH mice (Mus musculus) assessed as potentiation of 2.5 mg/kg chloroquine-mediated antimalarial activity at 100 mg/kg, perorally administered after 72 hrs post inoculation measured on day 4 post infection
[5] = system: Plasmodium chabaudi; assay: Antimicrobial activity against chloroquine-resistant Plasmodium chabaudi ASCQ infected in NIH mice (Mus musculus) assessed as potentiation of 2.5 mg/kg chloroquine-mediated antimalarial activity at 10 to 160 mg/kg, perorally administered after 72 hrs post inoculation measured on day 4 post infection
[6] = system: Plasmodium chabaudi; assay: Antimicrobial activity against chloroquine-resistant Plasmodium chabaudi ASCQ infected in NIH mice (Mus musculus) at 10 to 160 mg/kg, perorally administered after 72 hrs post inoculation measured on day 4 post infection
[7] = system: Plasmodium chabaudi; assay: Antimicrobial activity against chloroquine-resistant Plasmodium chabaudi ASCQ infected in NIH mice (Mus musculus) assessed as potentiation of 2.5 mg/kg chloroquine-mediated antimalarial activity at 100 mg/kg, perorally administered after 72 hrs post inoculation measured on day 4 post infection

Q: For `CCN(CC)CCCC(C)Nc1ccnc2cc(Cl)ccc12` (centres undefined), which Activity [1] is on record?
A: inactive

Q: For `CC(C)c1nc(CN(C)C(=O)N[C@H](C(=O)N[C@@H](Cc2ccccc2)C[C@H](O)[C@H](Cc2ccccc2)NC(=O)OCc2cncs2)C(C)C)cs1`, which Activity [2] is on record?
A: Active

Q: And the Activity [3]?
A: Active

Q: And the Activity [4]?
A: Active

Q: What about the Activity [5] of the same compound?
A: Active

Q: What about the Activity [6] of the same compound?
A: Active

Q: And the Activity [7]?
A: Active

Q: `CC(C)(C)NC(=O)[C@@H]1C[C@@H]2CCCC[C@@H]2CN1C[C@@H](O)[C@H](Cc1ccccc1)NC(=O)[C@H](CC(N)=O)NC(=O)c1ccc2ccccc2n1` was tested. Which Activity [2] did it give?
A: Active

Q: What about the Activity [3] of the same compound?
A: Active

Q: What about the Activity [7] of the same compound?
A: Active

Q: `Cc1c(O)cccc1C(=O)N[C@@H](CSc1ccccc1)[C@H](O)CN1C[C@H]2CCCC[C@H]2C[C@H]1C(=O)NC(C)(C)C` was tested. Which Activity [2] did it give?
A: Active

Q: What about the Activity [3] of the same compound?
A: Active

Q: And the Activity [7]?
A: Active

Q: For `Cc1cccc(C)c1OCC(=O)N[C@@H](Cc1ccccc1)[C@@H](O)C[C@H](Cc1ccccc1)NC(=O)[C@H](C(C)C)N1CCCNC1=O`, which Activity [2] is on record?
A: Active

Q: And the Activity [3]?
A: Active

Q: What about the Activity [7] of the same compound?
A: inactive

Q: What does the source list for `COC(=O)N[C@H](C(=O)N[C@@H](Cc1ccccc1)[C@@H](O)CN(Cc1ccc(-c2ccccn2)cc1)NC(=O)[C@@H](NC(=O)OC)C(C)(C)C)C(C)(C)C`?
A: Activity [2]: Active; Activity [3]: Active; Activity [7]: Active
